One substance from article PMC11357992, “Non-invasive mapping of systemic neutrophil dynamics upon cardiovascular injury” (Nature Cardiovascular Research, 2023) can be followed below.

This test concerns CD177+ and CD177- neutrophils. The test is described as follows: hNPPFC uptake by CD177+ and CD177- neutrophil subpopulations, flow cytometry. It counts as cell-based, human. To be noted: latter = CD177+. The protocol:
Fig. 5 Specific targeting of human neutrophils by ^hNPPFCs. a, Uptake of ^hNPPFCs (red) or ^ConPFCs (gray) by human lymphocytes, monocytes or neutrophils over time as determined by flow cytometry. **P < 0.01. b, For MRI analysis, human immune cells were incubated with ^hNPPFCs (top row) or ^ConPFCs (bottom row). After several washing steps, cells were purified by density gradient centrifugation and analyzed by MRI. First column, ^1H MR image of the centrifugation tube with the cell layer (arrow) on top of the dark Percoll layer; second column, ^19F MR image of the same area; third column, merge of both datasets. Quantification of the ^19F data is shown on the right. c, hNP was conjugated to the pH-sensitive dye pHrodo, incubated with neutrophils at 4 °C (blue) and 37 °C (red) and analyzed by flow cytometry. d, Confocal microscopy of neutrophils incubated with ^hNPPFCs (top) or ^ConPFCs (bottom). Fluorescence signals of PFCs (rhodamine; Rho) as well as ligands (carboxyfluorescein; CF) were recorded, and nuclei were counterstained with 4′,6-diamidino-2-phenylindole (DAPI) (blue). […] At distinct time points, uptake of ^hNPPFCs was determined by flow cytometry. f, Human blood immune cells were incubated with ^hNPPFCs followed by staining for CD177 and flow cytometry. […]
A general note: A flow cytometer gives signals particle by particle.

Where no end group is shown, it is not given here. carboxyfluorescein = N-terminal fluorescence label (CF)

For “hNPPFCs: PEGylated rhodamine-labeled perfluorocarbon nanoemulsion coupled with human neutrophil-specific peptide hNP (carboxyfluorescein-DLVTSKLQVGGGC; also: C-terminal Cys coupled via maleimide-PEG2000-DSPE to rhodamine-labelled perfluorocarbon nanoemulsion)”, the “labeling of CD177− versus CD177+ neutrophils” value is recorded as “only the latter population could be labeled”.
